# Measured values from patent EP0408760B1, “NEW HYDROXYLAMINE DERIVATIVE” (FUJISAWA PHARMACEUTICAL CO., LTD., priority 1988, dated 1990).
# Test system: D-Galactosamine-induced hepatitis in rats
# Experiment: Effect of compound on D-Galactosamine-induced hepatitis in rats (serum GOT and GPT)
# Format: in vivo
# Details: orally 3 hour before and after D-Galactosamine, blood 24 hours later, male Wistar rats
# Description: Method : Effect of compound on D-Galactosamine-induced hepatitis in rats
# Acute hepatitis was induced in male Wistar rats at 6 weeks of age by the intraperitoneal injection of 80 mg/ml D-Galactosamine in saline at the volume of 5 ml/kg. Blood samples were taken in rats under ether anaesthesia 24 hours later.
# After centrifugation for the separation of sera, the levels of GOT and GPT were determined spectrophotometrically according to Biochemical Analyzer TBA-20R (Toshiba).
# Compound was dissolved in polyethylene glycol 400, and administered orally 3 hour before and after the injection of D-Galactosamine.
# The levels of serum GOT and GPT in group of animals were measured as described above, and the mean value of each group calculated, including normal rats without D-Galactosamine injection.
# The effect of compound was expressed as the percentage Inhibition at serum GOT and GPT, taking activity of control serum as 0% Inhibtion and that of normal serum as 100% Inhibition.
smiles,measurement,setting,value
"CCNC(=O)N(O)CC1=Cc2cccc(Oc3ccccc3)c2CC1 [Test Compound (f), N-[(3,4-Dihydro-5-phenoxy-2-naphthyl)methyl]-N-hydroxy-N'-ethylurea]",Inhibition (%) serum GOT,dose 1 mg/kg,38%
same,Inhibition (%) serum GPT,dose 1 mg/kg,42%
same,Inhibition (%) serum GOT,dose 10 mg/kg,40%
same,Inhibition (%) serum GPT,dose 10 mg/kg,37%
same,Inhibition (%) serum GOT,dose 32 mg/kg,67%
same,Inhibition (%) serum GPT,dose 32 mg/kg,64%
